What was measured:
Format in all cases: functional
[1] = test system: Klebsiella pneumoniae; test: Antibacterial activity against Klebsiella pneumoniae ATCC 10031 (Gram negative) strain.
[2] = test system: Enterobacter cloacae; test: Antibacterial activity against Enterobacter cloacae OMNFI 174 (Gram negative) strain.
[3] = test system: Acinetobacter calcoaceticus; test: Antibacterial activity against Acinetobacter calcoaceticus OSMPV 113 (Gram negative) strain.
[4] = test system: Staphylococcus aureus; test: Antibacterial activity against Staphylococcus aureus MPR 5 (Gram positive) strain.
[5] = test system: Staphylococcus epidermidis; test: The compound was tested in vitro for antibacterial activity against Staphylococcus epidermidis CPHL A2 (Gram positive) strain
[6] = test system: Pseudomonas aeruginosa; test: Antibacterial activity against Pseudomonas aeruginosa ATCC 9027(Gram negative) strain.
[7] = test system: Escherichia coli; test: Antibacterial activity against Escherichia coli ATCC 8739(Gram negative) strain.
[8] = test system: Providencia stuartii; test: Antibacterial activity against Providencia stuartii CNUR 5(Gram negative) strain.
[9] = test system: Shigella; test: Antibacterial activity against Shigella enteritidis (Gram negative) strain.
[10] = test system: Escherichia coli; test: Antibacterial activity against Escherichia coli ISF 432(Gram negative) strain.
[11] = test system: Enterococcus faecalis; test: Antibacterial activity against Streptococcus faecalis LEP Br (Gram positive) strain.
[12] = test system: Staphylococcus aureus; test: Antibacterial activity against Staphylococcus aureus ATCC 6538 (Gram positive) strain.
[13] = test system: Staphylococcus epidermidis; test: Antibacterial activity against Staphylococcus epidermidis HCF Berset C (Gram positive) strain.
[14] = test system: Staphylococcus epidermidis; test: Antibacterial activity against Staphylococcus epidermidis CPHL A2 (Gram positive) strain, activity is expressed as log2MIC.

Compound | Log2 MIC [1] | Log2 MIC [2] | Log2 MIC [3] | Log2 MIC [4] | Log2 MIC [5] | Log2 MIC [6] | Log2 MIC [7] | Log2 MIC [8] | Log2 MIC [9] | Log2 MIC [10] | Log2 MIC [11] | Log2 MIC [12] | Log2 MIC [13] | Log2 MIC [14]
Cc1c(N2CCC(O)CC2)c(N)cc2c(=O)c(C(=O)O)cn(C3CC3)c12 | 12 | 8 | 10 | 10 | 11 | 6 | 7 | 7 | 9 | 12 | 8 | 11 | 11 | –
CC(=O)NC1CCN(c2c(N)cc3c(=O)c(C(=O)O)cn(C4CC4)c3c2C)C1 (stereo not given) | 9 | 5 | 5 | 3 | 3 | 3 | 10 | 2 | 5 | 10 | 1 | 3 | 3 | –
CN1CCN(c2nc3c(c(N)c2N)c(=O)c(C(=O)O)cn3C2CC2)CC1 | 13 | 9 | 8 | 6 | 6 | 4 | 9 | 8 | 8 | 13 | 4 | 6 | 6 | –
Cc1c(N2Cc3ccccc3C2)c(N)cc2c(=O)c(C(=O)O)cn(C3CC3)c12 | 11 | 9 | – | 13 | 13 | 8 | 13 | 11 | 9 | 13 | 9 | 13 | 12 | –
Cc1c(N2CCCC2)c(N)cc2c(=O)c(C(=O)O)cn(C3CC3)c12 | 8 | 1 | 3 | 5 | 3 | 0 | 2 | 1 | 1 | 7 | 1 | 5 | 3 | –
Nc1cc2c(=O)c(C(=O)O)cn(-c3ccc(F)cc3)c2cc1N1CCSCC1 | 12 | 5 | 5 | 7 | – | 0 | 11 | 5 | 5 | 12 | 0 | 8 | 5 | 5
Cc1c(N2CCN(C)CC2)c(N)cc2c(=O)c(C(=O)O)cn(C3CC3)c12 | 12 | 10 | – | 8 | 7 | 6 | 12 | 6 | 11 | 12 | 5 | 8 | 7 | –
Nc1cc2c(=O)c(C(=O)O)cn(C3CC3)c2cc1N1CCNCC1 | 9 | 9 | 3 | 1 | – | 6 | 9 | 2 | 8 | 12 | 0 | 1 | 3 | 3
CN1CCN(c2cc3c(cc2N)c(=O)c(C(=O)O)cn3-c2ccc(F)cc2)CC1 | 10 | 5 | 3 | 5 | – | 4 | 10 | 5 | 5 | 10 | 1 | 4 | 4 | 4
CN1CCN(c2nc3c(cc2N)c(=O)c(C(=O)O)cn3C2CC2)CC1 | 12 | 10 | 5 | 5 | – | 6 | 10 | 6 | 10 | 12 | 0 | 5 | 5 | 5

More lines, now with the values ahead:

Log2 MIC [1] | Log2 MIC [2] | Log2 MIC [3] | Log2 MIC [4] | Log2 MIC [5] | Log2 MIC [6] | Log2 MIC [7] | Log2 MIC [8] | Log2 MIC [9] | Log2 MIC [10] | Log2 MIC [11] | Log2 MIC [12] | Log2 MIC [13] | Log2 MIC [14] | Compound
12 | 10 | 6 | 7 | 7 | 7 | 10 | 6 | 11 | 12 | 5 | 7 | 7 | – | Cc1c(N2CCNC(C)C2)c(N)cc2c(=O)c(C(=O)O)cn(C3CC3)c12 (stereo not given)
12.5 | 9 | 10 | 11 | 10 | 7 | 9 | 6 | 10 | 12 | 8 | 11 | 10 | – | Cc1c(N2CCSCC2)c(N)cc2c(=O)c(C(=O)O)cn(C3CC3)c12
12 | 10 | – | 10 | 9 | 7 | 12 | 8 | 10 | 12 | 7 | 10 | 10 | – | Cc1c(N2CCOCC2)c(N)cc2c(=O)c(C(=O)O)cn(C3CC3)c12
9 | 1 | 7 | 7 | – | 0 | 8 | 0 | 1 | 8 | 3 | 7 | 6 | 7 | CC(C)(C)n1cc(C(=O)O)c(=O)c2cc(N)c(N3CCN(c4ccccn4)CC3)cc21
12 | 8 | 7 | 8 | – | 6 | 12 | 7 | 8 | 12 | 4 | 8 | 6 | 7 | Nc1cc2c(=O)c(C(=O)O)cn(C3CC3)c2cc1N1CCSCC1
8 | 6 | 2 | 0 | – | 2 | 8 | 0 | 6 | 8 | 0 | 0 | 2 | 1 | NCCN1CCN(c2cc3c(cc2N)c(=O)c(C(=O)O)cn3C2CC2)CC1
12 | 8 | 4 | 4 | – | 6 | 12 | 5 | 9 | 12 | 2 | 4 | 5 | 6 | CC1CN(c2cc3c(cc2N)c(=O)c(C(=O)O)cn3C2CC2)CC(C)N1 (stereo not given)
7 | 3 | 0 | 0 | 0 | 3 | 7 | 0 | 3 | 8 | 0 | 0 | 0 | – | Nc1cc2c(=O)c(C(=O)O)cn(C3CC3)c2cc1N1CCC(N)C1 (stereo not given)
6 | 0 | 0 | 0 | – | 0 | 7 | 0 | 0 | 7 | 0 | 0 | 0 | 0 | NCCSc1cc2c(cc1N)c(=O)c(C(=O)O)cn2C1CC1
12 | 7 | 7 | 9 | – | 5 | 10 | 8 | 5 | 11 | 5 | 8 | 7 | 8 | Nc1cc2c(=O)c(C(=O)O)cn(C3CC3)c2c(F)c1N1CCSCC1
5 | 0 | 0 | 0 | 0 | 0 | 5 | 0 | 0 | 5 | 0 | 0 | 0 | – | CC(=O)NC1CCN(c2cc3c(cc2N)c(=O)c(C(=O)O)cn3C2CC2)C1 (stereo not given)

From ChEMBL document CHEMBL1130043, “Chemometric methodologies in a quantitative structure-activity relationship study: the antibacterial activity of 6-aminoquinolones” (1997)
